{"source": "patent US8686040B2", "about": "“Method for treating anal pruritis and other perianal disorders” (RDD Pharma Ltd., priority 2008, dated 2014)", "origin": "cited, not measured here", "key": {"[1]": {"conditions": "relative to gabapentin"}}, "data": [{"compound": "CC(C)C[C@H](CN)CC(=O)O", "note": "[Pregabalin]", "values": [{"measurement": "time to reach peak concentration after oral ingestion", "result": "≤ 90", "unit": "min"}, {"measurement": "absorption when administered orally", "setting": "oral", "result": "greater than 90%"}, {"measurement": "lipid solubility", "setting": "[1]", "result": "higher lipid solubility than gabapentin"}]}]}
